What was measured:
KRS-AIMP2 = target: T1, KRS-AIMP2 (Homo sapiens, UniProt Q15046); test: Yeast two hybrid specificity test, LexA-KRS/B42-AIMP2 pair; format: cell-based; conditions: compound at 50 μg/ml, DMSO control 1.3204
T1 construct: expressed in transfected cells; host or cells: yeast (EGY/SH is stated for the KRS/LR pair)
Method: On the compound of the present invention obtained by screening a library of compounds, the extent of inhibition on the interaction between KRS and laminin receptor (67LR) was determined by a yeast two hybrid assay, as described below. KRS, LR, AIMP2, AIMP3 and MRS were cloned at LexA vector (clontech) and B42 vector (clontech) each so as to produce required vectors. From among the vectors, LexA-KRS vector and B42-LR vector were co-transformed into yeast EGY/SH cells, and then the yeast cells were diluted to an absorbance (540 nm wavelength) of 0.2 in galactose medium not containing uracil (Ura), histidine (His), tryptophane (Trp) and leucine (Leu), and placed in an amount of 200 u in a 96 well plate. 1 μl of each compound at a concentration of 10 mg/ml was placed in each well, incubated for 6 days, and the absorbance was measured at 540 nm. […] The inhibitory specificity of the selected compound was tested by using two different interaction pairs such as LexA-KRS/B42-AIMP2 and LexA-MRS/B42-AIMP3. […]

A549 cells [1] = test: Cytotoxicity analysis (EZ-cytox); format: cell-based, human; conditions: KL1 at indicated concentrations, 24 hours
Method: 10^4 A549 cells were placed in a 96-well plate, and treated with the compound represented by Formula 15, at indicated concentrations for 24 hours. Then, EZ-cytox (Daeil Lab, Korea) compound was added in an amount of 10 μl to each well in accordance with the manufacturer's instruction, followed by cultivation for 2 hours. A microplate reader was used to measure the absorbance at 420 nm.

A549 cells [2] = test: Western blotting of 67LR and 37LRP levels in A549 cells; format: cell-based, human; conditions: KL1 in different amounts
Method: As a control, an OD level of cells treated with DMSO was measured. FIG. 32 is a photograph showing cell growth in wells containing yeast cells having indicated interaction pairs in the presence or absence of CAND-KL1. In FIG. 33, in 293 cells, through co-immunoprecipitation, the KL1-dose-dependent effect on the interaction between KRS and 67LR was tested. The cells were treated with KL1 for 3 hours, 67LR was immunoprecipitated, and co-precipitation of KRS was determined by western blotting. In FIG. 34, in the presence of KL1 in indicated levels, a laminin receptor labeled with radioisotope was mixed with GST-KRS (1 μg). GST-KRS was precipitated with glutathione-Sepharose beads, and co-precipitated laminin receptor was detected with autoradiography. In FIG. 35, in A549 cells, the effect of KL1 on the intracellular level of 67LR and 37LRP was tested with western blotting. […] GST-KRS was immobilized on a CM5 Sensor Chip, and the binding was measured by a resonance unit (RU) at indicated concentrations (indicated by different colors). […]
From among the compounds, the inventors also examined whether the compound represented by Formula 15 (indicated by CAND-KL1, and KL1) can inhibit the intracellular interaction between KRS and 67LR. […] Then, 67LR was immunoprecipitated with its antibody, and co-immunoprecipitation of KRS was determined. […]

[3] = target: T2, interaction between KRS and laminin receptor (67LR) (Homo sapiens, UniProt Q15046); test: Yeast two hybrid growth assay, LexA-KRS/B42-LR pair; format: cell-based
T2 construct: expressed in transfected cells; host or cells: yeast EGY/SH cells
T2 sequence (Q15046 whole entry): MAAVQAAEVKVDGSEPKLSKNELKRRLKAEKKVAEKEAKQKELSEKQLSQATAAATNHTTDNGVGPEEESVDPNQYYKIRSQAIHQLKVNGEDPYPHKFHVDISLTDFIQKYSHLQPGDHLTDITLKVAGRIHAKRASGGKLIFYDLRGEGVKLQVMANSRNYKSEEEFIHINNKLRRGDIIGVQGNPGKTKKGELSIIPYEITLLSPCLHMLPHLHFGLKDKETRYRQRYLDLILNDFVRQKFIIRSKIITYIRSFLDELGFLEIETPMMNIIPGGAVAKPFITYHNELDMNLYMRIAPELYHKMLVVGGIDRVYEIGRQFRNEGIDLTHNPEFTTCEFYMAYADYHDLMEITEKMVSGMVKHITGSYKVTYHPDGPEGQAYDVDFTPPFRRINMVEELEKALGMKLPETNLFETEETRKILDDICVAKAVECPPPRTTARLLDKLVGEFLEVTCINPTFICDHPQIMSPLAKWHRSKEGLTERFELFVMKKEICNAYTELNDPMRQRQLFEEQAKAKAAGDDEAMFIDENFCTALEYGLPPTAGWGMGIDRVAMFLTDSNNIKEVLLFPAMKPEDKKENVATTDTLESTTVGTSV
Method: On the compound of the present invention obtained by screening a library of compounds, the extent of inhibition on the interaction between KRS and laminin receptor (67LR) was determined by a yeast two hybrid assay, as described below. KRS, LR, AIMP2, AIMP3 and MRS were cloned at LexA vector (clontech) and B42 vector (clontech) each so as to produce required vectors. From among the vectors, LexA-KRS vector and B42-LR vector were co-transformed into yeast EGY/SH cells, and then the yeast cells were diluted to an absorbance (540 nm wavelength) of 0.2 in galactose medium not containing uracil (Ura), histidine (His), tryptophane (Trp) and leucine (Leu), and placed in an amount of 200 u in a 96 well plate. 1 μl of each compound at a concentration of 10 mg/ml was placed in each well, incubated for 6 days, and the absorbance was measured at 540 nm. […] The inhibitory specificity of the selected compound was tested by using two different interaction pairs such as LexA-KRS/B42-AIMP2 and LexA-MRS/B42-AIMP3.
In order to determine if the compound of the present invention controls the interaction between KRS and laminin receptor, the present inventors determined the interaction between KRS and 67LR through treatment of the compound of the present invention.

T1 sequence (Q15046 whole entry): as above

KRS-AIMP2 (yeast growth, OD level) (KRS-AIMP2): 0.9497
inhibition at 10000 µg/mL (stock) ([3]; growth inhibition of yeast EGY/SH cells with LexA-KRS/B42-LR vs control, 1 μl of 10 mg/ml compound per well, 6 days, absorbance 540 nm, read-out: Inhibition rate(%)): 52.1%
KRS-67LR (yeast growth, OD level) ([3]; yeast two hybrid pair KRS-67LR, compound at 50 μg/ml, DMSO control 0.4241): 0.2223
Structure (SMILES): CCC(C(=O)O)n1/c(=N/C(=O)c2ccc(C)cc2)sc2ccccc21 (stereo not drawn) [Compound of formula 15, 2-[2-(4-Methyl-benzoylimino)-benzothiazol-3-yl]-butyric acid]
viability (A549 cells [1]): not influenced
cytoplasmic 37LRP level (A549 cells [2]): no effect
intracellular level of 67LR (A549 cells [2]): decreased by the amount of added KL1

Source: patent US10130611B2, “Use of benzo-heterocycle derivatives for preventing and treating cancer or for inhibiting cancer metastasis” (MEDICINAL BIOCONVERGENCE RESEARCH CENTER, priority 2009, dated 2018)
